According to PubChem BioAssay (NCI):
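Step 1: Grow cells in 96-well plates. Step 2: Expose to compound for 48 hours at 5 concentrations. Step 3: Interpolate endpoints linearly; if unreached, use highest concentration. GI50 is the concentration that inhibits growth by half. At the TGI there is no net growth.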

Columns and labels:
Assay in all cases: NCI tumour cell line growth inhibition, 48 h
[1] = tested on: SK-OV-3 ovarian
[2] = tested on: U251 CNS
[3] = tested on: SK-MEL-2 melanoma
[4] = tested on: ACHN renal
[5] = tested on: HCT-116 colon
[6] = tested on: UO-31 renal
[7] = tested on: OVCAR-3 ovarian
[8] = tested on: TK-10 renal
[9] = tested on: K-562 leukemia
[10] = tested on: SK-MEL-5 melanoma
[11] = tested on: T-47D breast
[12] = tested on: SF-268 CNS
[13] = tested on: CAKI-1 renal
[14] = tested on: NCI-H23 lung
[15] = tested on: HOP-92 NSCLC
[16] = tested on: MALME-3M melanoma
[17] = tested on: A549 NSCLC
[18] = tested on: HOP-62 NSCLC
[19] = tested on: SNB-19 CNS
[20] = tested on: SK-MEL-28 melanoma
[21] = tested on: PC-3 prostate
[22] = tested on: NCI-H522 lung
[23] = tested on: LOX IMVI melanoma
[24] = tested on: OVCAR-8 ovarian
[25] = tested on: A498 renal
[26] = tested on: EKVX NSCLC
[27] = tested on: SW-620 colon
[28] = tested on: MCF7 breast
[29] = tested on: SN12C renal
[30] = tested on: MOLT-4 leukemia
[31] = tested on: BT-549 breast
[32] = tested on: IGROV1 ovarian
[33] = tested on: RXF 393 renal
[34] = tested on: NCI/ADR-RES ovarian
[35] = tested on: UACC-62 melanoma
[36] = tested on: HS 578T breast
[37] = tested on: CCRF-CEM leukemia
[38] = tested on: HL-60(TB) leukemia
[39] = tested on: UACC-257 melanoma
[40] = tested on: NCI-H226 lung
[41] = tested on: DU-145 prostate
[42] = tested on: HT29 colon
[43] = tested on: HCC-2998 colon
[44] = tested on: MDA-MB-435
[45] = tested on: SF-295 CNS
[46] = tested on: OVCAR-4 ovarian
[47] = tested on: OVCAR-5 ovarian
[48] = tested on: 786-0 renal
[49] = tested on: HCT-15 colon
[50] = tested on: KM12 colon
[51] = tested on: COLO 205 colon
[52] = tested on: NCI-H460 lung
[53] = tested on: SR leukemia
[54] = tested on: SNB-75 CNS
[55] = tested on: MDA-MB-231 breast
[56] = tested on: M14 melanoma
[57] = tested on: SF-539 CNS

## COc1ccc(CNc2c3ccccc3nc3ccc(OC)cc23)cc1
[1]
  GI50: 4.83 µM
  TGI: 17.2 µM
[2]
  GI50: 3.18 µM
  TGI: 11.2 µM
[3]
  GI50: 2.37 µM
  TGI: 6.2 µM
[4]
  GI50: 2.72 µM
  TGI: 10.1 µM
[5]
  GI50: 2.55 µM
  TGI: 11.6 µM
[6]
  GI50: 1.93 µM
  TGI: 9.13 µM
[7]
  GI50: 2.61 µM
  TGI: 8.68 µM
[8]
  GI50: 3.77 µM
  TGI: 13.9 µM
[9]
  GI50: 2.27 µM
  TGI: 11.1 µM
[10]
  GI50: 1.95 µM
  TGI: 3.87 µM
[11]
  GI50: 3.54 µM
  TGI: 18.9 µM
[12]
  GI50: 3.75 µM
  TGI: 15.2 µM
[13]
  GI50: 1.76 µM
  TGI: 3.72 µM
[14]
  GI50: 1.78 µM
  TGI: 4.71 µM
[15]
  GI50: 2.17 µM
  TGI: 7.69 µM
[16]
  GI50: 1.89 µM
  TGI: 3.72 µM
[17]
  GI50: 2.59 µM
  TGI: 7.46 µM
[18]
  GI50: 3.38 µM
  TGI: 15.4 µM
[19]
  GI50: 4.14 µM
  TGI: 16 µM
[20]
  GI50: 1.88 µM
  TGI: 3.68 µM
[21]
  GI50: 2.8 µM
  TGI: 11.8 µM
[22]
  GI50: 3.17 µM
  TGI: 14.3 µM
[23]
  GI50: 1.67 µM
  TGI: 3.31 µM
[24]
  GI50: 3.04 µM
  TGI: 13.5 µM
[25]
  GI50: 1.69 µM
  TGI: 3.33 µM
[26]
  GI50: 3.15 µM
  TGI: 12.2 µM
[27]
  GI50: 2.08 µM
  TGI: 7.22 µM
[28]
  GI50: 2.11 µM
  TGI: 5.71 µM
[29]
  GI50: 3.31 µM
  TGI: 12.6 µM
[30]
  GI50: 2.75 µM
  TGI: 10.3 µM
[31]
  GI50: 4.25 µM
  TGI: 15.8 µM
[32]
  GI50: 3.02 µM
  TGI: 11.1 µM
[33]
  GI50: 1.52 µM
  TGI: 3.04 µM
[34]
  GI50: 2.22 µM
  TGI: 7.52 µM
[35]
  GI50: 1.79 µM
  TGI: 3.75 µM
[36]
  GI50: 2.85 µM
  TGI: 8.68 µM
[37]
  GI50: 3.09 µM
  TGI: 13.3 µM
[38]
  GI50: 2.15 µM
  TGI: 4.73 µM
[39]
  GI50: 2.15 µM
  TGI: 4.81 µM
[40]
  GI50: 2.54 µM
  TGI: 9.14 µM
[41]
  GI50: 3.16 µM
  TGI: 10.9 µM
[42]
  GI50: 2.11 µM
  TGI: 10.1 µM
[43]
  GI50: 1.85 µM
  TGI: 3.76 µM
[44]
  GI50: 1.99 µM
  TGI: 6.32 µM
[45]
  GI50: 1.73 µM
  TGI: 4.27 µM
[46]
  GI50: 2.94 µM
  TGI: 10.5 µM
[47]
  GI50: 2.64 µM
  TGI: 9.52 µM
[48]
  GI50: 2.02 µM
  TGI: 4.55 µM
[49]
  GI50: 2.27 µM
  TGI: 6.18 µM
[50]
  GI50: 3.3 µM
  TGI: 12.4 µM
[51]
  GI50: 1.76 µM
  TGI: 3.99 µM
[52]
  GI50: 2.46 µM
  TGI: 6.41 µM
[53]
  GI50: 1.86 µM
  TGI: 5.81 µM
[54]
  GI50: 2.19 µM
  TGI: 8.24 µM
[55]
  GI50: 1.9 µM
  TGI: 4.69 µM
[56]
  GI50: 1.9 µM
  TGI: 4.26 µM
[57]
  GI50: 1.96 µM
  TGI: 4.13 µM
